Data published in patent publication US12595253B2, “Benzamides of pyrazolylamino-pyrimidinyl derivatives, and compositions and methods thereof” (LYNK PHARMACEUTICALS CO. LTD., priority 2019, dated 2026).

Columns and labels:
[1] = target: T1, CYP2C19 (Homo sapiens, UniProt P33261); test: CYPs inhibition in pooled human liver microsomes, probe substrate S-mephenytoin; assay type: in vitro ADME
T1 construct: 0.2 mg/mL human liver microsomes was pre-incubated in 180 μL reaction mixture; from tissue; host or cells: pooled human liver microsomes
Method in brief: (§1)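 Test articles pre-incubated 10 min at 37 °C with a probe-substrate cocktail in pooled human liver microsomes. Reaction then started with NADPH and run 10 min. Metabolites quantified by LC-MS/MS; IC50 from 3-parameter logistic fit of % control activity.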

[2] = target: T2, CYP1A2 (Homo sapiens, UniProt P05177); test: CYPs inhibition in pooled human liver microsomes, probe substrate Phenacetin; assay type: in vitro ADME
T2 construct: 0.2 mg/mL human liver microsomes was pre-incubated in 180 μL reaction mixture; from tissue; host or cells: pooled human liver microsomes
T2 sequence (P05177 1-516): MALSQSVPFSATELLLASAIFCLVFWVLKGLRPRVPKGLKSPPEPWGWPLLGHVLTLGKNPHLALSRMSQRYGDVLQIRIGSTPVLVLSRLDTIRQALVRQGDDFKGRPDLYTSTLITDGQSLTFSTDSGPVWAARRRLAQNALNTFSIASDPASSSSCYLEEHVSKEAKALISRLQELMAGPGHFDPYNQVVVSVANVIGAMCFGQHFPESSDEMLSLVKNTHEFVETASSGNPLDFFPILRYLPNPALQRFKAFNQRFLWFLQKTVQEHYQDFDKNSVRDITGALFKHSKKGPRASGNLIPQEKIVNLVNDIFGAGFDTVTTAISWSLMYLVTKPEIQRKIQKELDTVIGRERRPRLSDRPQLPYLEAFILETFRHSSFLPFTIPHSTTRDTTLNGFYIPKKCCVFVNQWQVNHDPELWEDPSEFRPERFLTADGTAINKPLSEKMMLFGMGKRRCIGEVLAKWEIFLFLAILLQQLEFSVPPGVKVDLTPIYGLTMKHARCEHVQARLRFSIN
Method in brief: as §1

[3] = target: T3, CYP2C9 (Homo sapiens, UniProt P11712); test: CYPs inhibition in pooled human liver microsomes, probe substrate Diclofenac; assay type: in vitro ADME
T3 construct: 0.2 mg/mL human liver microsomes was pre-incubated in 180 μL reaction mixture; from tissue; host or cells: pooled human liver microsomes
Method in brief: as §1

[4] = target: T4, JAK2V617F (Homo sapiens, UniProt O60674, V617F); test: JAK2V617F microfluidic kinase assay (Caliper EZ Reader II, FAM labeled peptide substrate); assay type: biochemical; details: JAK2V617F 2.5 nM, 1 mM ATP
T4 construct: purchased Carna Biosciences
Method in brief: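 Microfluidic mobility-shift kinase assay in 50 mM HEPES, 0.01% Brij35, 10 mM MgCl2, 2 mM DTT. IC50 values come from percent-inhibition curves normalised to uninhibited and enzyme-free controls.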

T1 sequence (P33261 whole entry): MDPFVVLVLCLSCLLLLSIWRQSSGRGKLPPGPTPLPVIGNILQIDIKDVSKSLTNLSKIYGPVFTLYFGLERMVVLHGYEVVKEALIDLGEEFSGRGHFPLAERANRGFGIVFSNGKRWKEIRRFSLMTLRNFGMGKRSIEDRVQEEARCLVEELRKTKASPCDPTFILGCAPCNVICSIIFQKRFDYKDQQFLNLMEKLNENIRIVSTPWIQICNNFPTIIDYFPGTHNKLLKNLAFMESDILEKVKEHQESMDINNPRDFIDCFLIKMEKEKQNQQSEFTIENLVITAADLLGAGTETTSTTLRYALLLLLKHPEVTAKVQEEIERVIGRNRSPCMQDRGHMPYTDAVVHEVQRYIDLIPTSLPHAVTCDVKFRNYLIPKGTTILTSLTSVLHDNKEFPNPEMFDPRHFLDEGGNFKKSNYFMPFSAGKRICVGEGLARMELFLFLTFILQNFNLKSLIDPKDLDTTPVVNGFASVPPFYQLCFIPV
T4 sequence (O60674 whole entry V617F): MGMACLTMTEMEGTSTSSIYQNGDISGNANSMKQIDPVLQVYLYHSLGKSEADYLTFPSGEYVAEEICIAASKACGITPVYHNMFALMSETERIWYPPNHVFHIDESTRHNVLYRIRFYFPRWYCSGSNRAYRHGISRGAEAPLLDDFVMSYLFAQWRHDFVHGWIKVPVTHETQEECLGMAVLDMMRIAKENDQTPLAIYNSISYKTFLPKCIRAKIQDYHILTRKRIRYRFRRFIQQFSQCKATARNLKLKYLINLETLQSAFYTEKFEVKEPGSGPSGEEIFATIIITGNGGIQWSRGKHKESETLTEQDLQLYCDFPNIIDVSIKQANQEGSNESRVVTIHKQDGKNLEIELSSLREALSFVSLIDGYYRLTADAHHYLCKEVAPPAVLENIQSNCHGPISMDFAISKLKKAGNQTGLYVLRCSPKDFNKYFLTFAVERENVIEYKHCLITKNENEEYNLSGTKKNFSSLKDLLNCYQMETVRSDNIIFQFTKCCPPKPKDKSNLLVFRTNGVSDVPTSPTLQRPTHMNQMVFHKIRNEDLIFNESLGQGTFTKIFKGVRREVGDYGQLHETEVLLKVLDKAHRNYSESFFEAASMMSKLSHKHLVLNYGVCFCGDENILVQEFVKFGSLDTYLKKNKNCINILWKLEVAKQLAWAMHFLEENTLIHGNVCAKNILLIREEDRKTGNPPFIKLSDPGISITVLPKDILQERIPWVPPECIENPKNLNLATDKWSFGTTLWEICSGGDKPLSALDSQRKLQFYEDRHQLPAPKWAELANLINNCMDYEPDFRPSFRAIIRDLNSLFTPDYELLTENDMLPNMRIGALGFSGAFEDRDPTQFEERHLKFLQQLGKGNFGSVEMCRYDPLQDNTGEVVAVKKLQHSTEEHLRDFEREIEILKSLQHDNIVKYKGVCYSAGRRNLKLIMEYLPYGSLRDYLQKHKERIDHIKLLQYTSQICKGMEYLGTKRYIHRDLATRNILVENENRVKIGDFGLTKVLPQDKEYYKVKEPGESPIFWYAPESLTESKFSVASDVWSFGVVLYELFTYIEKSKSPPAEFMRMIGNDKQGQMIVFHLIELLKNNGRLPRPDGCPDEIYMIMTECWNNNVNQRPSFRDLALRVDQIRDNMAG
T3 sequence (P11712 whole entry): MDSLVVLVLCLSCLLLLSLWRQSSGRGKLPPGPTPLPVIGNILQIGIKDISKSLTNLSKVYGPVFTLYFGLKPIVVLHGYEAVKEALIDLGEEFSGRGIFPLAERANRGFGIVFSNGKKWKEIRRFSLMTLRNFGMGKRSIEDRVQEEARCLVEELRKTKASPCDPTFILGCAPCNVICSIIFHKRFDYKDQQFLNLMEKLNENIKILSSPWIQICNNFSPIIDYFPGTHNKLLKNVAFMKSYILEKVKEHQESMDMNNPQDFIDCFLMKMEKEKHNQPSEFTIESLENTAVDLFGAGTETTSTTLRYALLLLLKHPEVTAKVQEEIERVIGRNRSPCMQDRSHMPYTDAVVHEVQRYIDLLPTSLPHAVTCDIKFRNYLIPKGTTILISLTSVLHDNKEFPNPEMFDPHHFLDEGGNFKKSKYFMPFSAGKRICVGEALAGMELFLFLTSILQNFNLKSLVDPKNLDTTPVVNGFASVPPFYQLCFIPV

Structure (SMILES) | IC50 [1] [µM] | IC50 [2] [µM] | IC50 [3] [µM] | IC50 [4] [µM]
C[C@@H](C#N)NC(=O)c1ccc(-c2nc(Nc3cnn(C4CCNCC4)c3)ncc2Cl)cc1 [Example 165, (S)-4-(5-chloro-2-((1-(piperidin-4-yl)-1H-pyrazol-4-yl)amino)pyrimidin-4-yl)-N-(1-cyanoethyl)benzamide] | > 50 | > 50 | 19 | 
CC[C@@H](C#N)NC(=O)c1ccc(-c2nc(Nc3cnn(C4CCN(C)CC4)c3)ncc2C)cc1 [Example 184, (S)—N-(1-Cyanopropyl)-4-(5-methyl-2-((1-(1-methylpiperidin-4-yl)-1H-pyrazol-4-yl)amino)pyrimidin-4-yl)benzamide] | > 50 | > 50 | > 50 | 
C[C@@H](C#N)NC(=O)c1ccc(-c2nc(Nc3cnn(C4CCN(C)CC4)c3)ncc2Cl)cc1 [Example 43, (S)-4-(5-Chloro-2-((1-(1-methylpiperidin-4-yl)-1H-pyrazol-4-yl)amino)pyrimidin-4-yl)-N-(1-cyanoethyl)benzamide] | > 50 | > 50 | > 50 | 0.0452
Cc1cnc(Nc2cnn(C3CCN(C(=O)CO)CC3)c2)nc1-c1ccc(C(=O)N[C@@H](C)C#N)cc1 [Example 119, (S)—N-(1-cyanoethyl)-4-(2-((1-(1-(2-hydroxyacetyl)piperidin-4-yl)-1H-pyrazol-4-yl)amino)-5-methylpyrimidin-4-yl)benzamide] | > 50 | > 50 | > 50 | 0.00096
Cc1cnc(Nc2cnn(C)c2)nc1-c1ccc(C(=O)NC(C)C)cc1 [Example 223, N-isopropyl-4-(5-methyl-2-((1-methyl-1H-pyrazol-4-yl)amino)pyrimidin-4-yl)benzamide] |  |  |  | 4.54
CC[C@@H](C#N)NC(=O)c1ccc(-c2nc(Nc3cnn(C4CCNCC4)c3)ncc2Cl)cc1 [Example 183, (S)-4-(5-chloro-2-((1-(piperidin-4-yl)-1H-pyrazol-4-yl)amino)pyrimidin-4-yl)-N-(1-cyanopropyl)benzamide] | > 50 | > 50 | 3.18 | 
CC[C@@H](C#N)NC(=O)c1ccc(-c2nc(Nc3cnn(C4CC4)c3)ncc2Cl)cc1 [Example 61, (S)-4-(5-chloro-2-((1-cyclopropyl-1H-pyrazol-4-yl)amino)pyrimidin-4-yl)-N-(1-cyanopropyl)benzamide] |  |  |  | 0.0348
C[C@@H](C#N)NC(=O)c1ccc(-c2nc(Nc3cnn(C4CC4)c3)ncc2Cl)cc1 [Example 111, (S)-4-(5-Chloro-2-((1-cyclopropyl-1H-pyrazol-4-yl)amino)pyrimidin-4-yl)-N-(1-cyanoethyl)benzamide] |  |  |  | 0.0314

Further lines, results first:

IC50 [1] [µM] | IC50 [2] [µM] | IC50 [3] [µM] | IC50 [4] [µM] | Structure (SMILES)
 |  |  | 0.0253 | N#CCNC(=O)c1ccc(-c2nc(Nc3cnn(C4CC4)c3)ncc2Cl)cc1 [Example 95, 4-(5-Chloro-2-((1-cyclopropyl-1H-pyrazol-4-yl)amino)pyrimidin-4-yl)-N-(cyanomethyl)benzamide]
> 50 | 45.8 | > 50 | 0.109 | Cc1cnc(Nc2cnn(CC#N)c2)nc1-c1ccc(C(=O)NCC#N)cc1 [Example 4, N-(Cyanomethyl)-4-(2-((1-(cyanomethyl)-1H-pyrazol-4-yl)amino)-5-methylpyrimidin-4-yl)benzamide]
 |  |  | > 5 | CCNC(=O)c1ccc(-c2nc(Nc3cnn(C)c3)ncc2C)cc1 [Example 222, N-ethyl-4-(5-methyl-2-((1-methyl-1H-pyrazol-4-yl)amino)pyrimidin-4-yl)benzamide]
6.36 | > 50 | 14.1 |  | Cc1cnc(Nc2cnn(C3CC(C)(C)OC(C)(C)C3)c2)nc1-c1ccc(C(=O)NCC#N)cc1 [Example 113, N-(cyanomethyl)-4-(5-methyl-2-((1-(2,2,6,6-tetramethyltetrahydro-2H-pyran-4-yl)-1H-pyrazol-4-yl)amino)pyrimidin-4-yl)benzamide]
 |  |  | > 5 | CNC(=O)c1ccc(-c2nc(Nc3cnn(C)c3)ncc2C)cc1 [Example 10, N-Methyl-4-(5-methyl-2-((1-methyl-1H-pyrazol-4-yl)amino)pyrimidin-4-yl)benzamide]
